Results from patent US7786114B2, “Bis-azaindole derivatives, preparation and pharmaceutical use thereof as kinase inhibitors” (Aventis Pharma S.A., priority 2004, dated 2010).

Row | melting point | Compound
1 | 135 °C | COc1cc2c(nc1OC)c(-c1cc3c(Cl)c(F)cnc3[nH]1)cn2CCCN1CCC(CN)CC1 [Example 15, C-(1-{3-[3-(4-Chloro-5-fluoro-1H-pyrrolo[2,3-b]pyridin-2-yl)-5,6-dimethoxypyrrolo[3,2-b]pyridin-1-yl]propyl}piperidin-4-yl)methylamine]
2 | 155 °C | COc1cc2c(nc1OC)c(-c1cc3c(Cl)c(F)cnc3[nH]1)cn2CCCN1CCN(C)CC1 [Example 16, 3-(4-Chloro-5-fluoro-1H-pyrrolo[2,3-b]pyridin-2-yl)-5,6-dimethoxy-1-[3-(4-methylpiperazin-1-yl)propyl]-1H-pyrrolo[3,2-b]pyridine]
3 | 218 °C | COc1cc2c(nc1OC)c(-c1cc3cc(F)cnc3[nH]1)cn2CCN1CCOCC1 [Example 7, 3-(5-fluoro-1H-pyrrolo[2,3-b]pyridin-2-yl)-5,6-dimethoxy-1-(2-morpholin-4-ylethyl)-1H-pyrrolo[3,2-b]pyridine]
4 | 140 to 145 °C | COc1cc2c(nc1OC)c(-c1cc3c(Cl)c(F)cnc3[nH]1)cn2CCCN1CCCN(C)CC1 [Example 13, 3-(4-Chloro-5-fluoro-1H-pyrrolo[2,3-b]pyridin-2-yl)-5,6-dimethoxy-1-[3-(4-methylperhydro-1,4-diazepin-1-yl)propyl]-1H-pyrrolo[3,2-b]pyridine]
5 | 283 to 284 °C | COc1cc2[nH]cc(-c3cc4c(Cl)c(F)cnc4[nH]3)c2nc1OC [Example 9, 3-[4-Chloro-5-fluoro-1H-pyrrolo[2,3-b]pyridin-2-yl]-5,6-dimethoxy-1H-pyrrolo[3,2-b]pyridine]
6 | 206 °C | COc1cc2c(nc1OC)c(-c1cc3c(Cl)c(F)cnc3[nH]1)cn2CCN1CCOCC1 [Example 8, 3-(4-chloro-5-fluoro-1H-pyrrolo[2,3-b]pyridin-2-yl)-5,6-dimethoxy-1-(2-morpholin-4-yl-ethyl)-1H-pyrrolo[3,2-b]pyridine]
7 | 110 to 114 °C | COc1cc2c(nc1OC)c(-c1cc3c(Cl)c(F)cnc3[nH]1)cn2CCCN1CCCCC1 [Example 11, 3-[4-Chloro-5-fluoro-1H-pyrrolo[2,3-b]pyridin-2-yl]-5,6-dimethoxy-1-(3-piperidin-1-ylpropyl)-1H-pyrrolo[3,2-b]pyridine]
8 | 188 °C | COc1cc2c(nc1OC)c(-c1cc3c(Cl)c(F)cnc3[nH]1)cn2CCCN1CCC(O)CC1 [Example 12, 1-{3-[3-(4-Chloro-5-fluoro-1H-pyrrolo[2,3-b]pyridin-2-yl)-5,6-dimethoxypyrrolo[3,2-b]pyridin-1-yl]propyl}piperidin-4-ol]
9 | 189 °C | COc1cc2c(nc1OC)c(-c1cc3c(Cl)c(F)cnc3[nH]1)cn2CCCN1CCOCC1 [Example 14, 3-(4-Chloro-5-fluoro-1H-pyrrolo[2,3-b]pyridin-2-yl)-5,6-dimethoxy-1-(3-morpholin-4-ylpropyl)-1H-pyrrolo[3,2-b]pyridine]
